{"source": "patent US10195242B2", "about": "“Therapeutic compounds” (Wintermute Biomedical, Inc., priority 2013, dated 2019)", "assay_type_in_all_cases": "cell-based", "conditions_in_all_cases": "twenty-four hours after inoculation, combination assay", "key": {"[1]": {"tested_on": "methicillin-resistant Staphylococcus aureus (MRSA)", "experiment": "In vitro growth inhibition on sheep blood agar (SBA) plates", "procedure": "(§1) In vitro testing was conducted to measure the efficacy of WT13-12 at inhibiting the growth of clinically relevant bacteria. […] WT13-12 was streaked across half of a sheep blood agar (SBA) plate and allowed to dry for 15 minutes. The other side was streaked with the vehicle but not containing WT13-12. After drying, 50 μL of purified bacteria at 100,000 col/mL was streaked onto the control and treated sides of the sheep blood agar plates. After streaking, the plates were incubated at 37° C. for 48 hours. Growth was assessed at 24 and 48 hours post-inoculation. Percent inhibition was determined by measuring the treated side vs. the control side with the control side set at 100% growth.\n(§2) Each component of WT13-12 was tested individually or in paired combination in the in vitro bacterial growth inhibition assay described above to determine the relative contribution of each component."}, "[2]": {"tested_on": "Streptococcus agalactiae (Group B beta strep)", "experiment": "In vitro growth inhibition on SBA plates", "procedure": "as §1, §2"}, "[3]": {"tested_on": "Streptococcus pyogenes (Group A beta hemolytic strep)", "experiment": "In vitro growth inhibition on SBA plates", "procedure": "as §1, §2"}}}
{"smiles": "C=CCCCCCCCCC(=O)O", "note": "[undecylenic acid]", "values": [{"measurement": "growth inhibition of MRSA versus control", "setting": "[1]", "value": "no effect"}, {"measurement": "growth inhibition of S. agalactiae versus control", "setting": "[2]", "value": "significant effect"}, {"measurement": "growth inhibition of S. pyogenes versus control", "setting": "[3]", "value": "significant inhibitory effects"}]}
{"smiles": "N=C(N)NCCC[C@H](N)C(=O)O", "note": "[L-Arginine]", "values": [{"measurement": "growth inhibition of MRSA versus control", "setting": "[1]", "value": "no effect"}]}
